Data reported in patent US20240210412A1, “SULFONYL-TRIAZOLE COMPOUNDS USEFUL AS LIGANDS AND INHIBITORS OF PROSTAGLANDIN REDUCTASE 2” (University of Virginia Patent Foundation, priority 2021, published 2024).

Key:
Q13033 = biological target: T1, Q13033 (Homo sapiens, UniProt Q13033); assay: SILAC LC-MS ABPP; type: cell-based; conditions: 25 μM 2 h, live DM93 cells
T1 construct: performing SuTEx compound screening directly in cells; endogenous in cells; host or cells: DM93 cells (SILAC), soluble fraction
Procedure, shortened: (§1)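 In DM93 melanoma cells, heavy SILAC cultures take 25 μM SuTEx compound for 2 h at 37 °C while light cultures take DMSO. Both then receive HHS-475 alkyne probe at 100 μM for 2 h; probe-modified peptides are quantified by LC-MS/MS.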

P63241 = biological target: T2, P63241 (Homo sapiens, UniProt P63241); assay: SILAC LC-MS ABPP; type: cell-based; conditions: 25 μM 2 h, live DM93 cells
T2 construct: performing SuTEx compound screening directly in cells; endogenous in cells; host or cells: DM93 cells (SILAC)
Procedure, shortened: as §1

Q9HCH5 = biological target: T3, Q9HCH5 (Homo sapiens, UniProt Q9HCH5); assay: SILAC LC-MS ABPP; type: cell-based; conditions: 25 μM 2 h, live DM93 cells
T3 construct: endogenous in cells; host or cells: DM93 cells (SILAC), treated live; soluble proteome analysed
Procedure, shortened: as §1

O43172 = biological target: T4, O43172 (Homo sapiens, UniProt O43172); assay: SILAC LC-MS ABPP; type: cell-based; conditions: 25 μM 2 h, live DM93 cells
T4 construct: endogenous in cells; host or cells: DM93
Procedure, shortened: as §1

Q9BUT1 = biological target: T5, Q9BUT1 (Homo sapiens, UniProt Q9BUT1); assay: SILAC LC-MS ABPP; type: cell-based; conditions: 25 μM 2 h, live DM93 cells
T5 construct: endogenous in cells; host or cells: DM93 cells (SILAC), treated live; soluble proteome analysed
Procedure, shortened: as §1

PTGR2 = biological target: T6, PTGR2 (Homo sapiens, UniProt Q8N8N7); assay: PTGR2 enzymatic (15-keto-PGE2 substrate) assay after live-cell treatment; type: biochemical; conditions: cells treated 2 h 37° C., up to 25 μM; 15-keto-PGE2 20 μM
T6 construct: host or cells: HEK293T
Method: PTGR2 enzymatic assay was performed based on a previously described chromogenic method^[17,81]. HEK293T cells expressing recombinant PTGR2 were treated with DMSO vehicle or indicated concentrations of SuTEx ligand for 2 hrs. The cells were washed with cold PBS twice and harvested. The proteomes were lysed in PBS by sonication and fractionated (100,000×g, 45 min, 4° C.). Soluble proteome (0.5 mg) was incubated for 30 min at 37° C. with 1 mM of EDTA, DTT, NADPH and 20 μM 15-Keto PGE2 in 0.1 M Tris-HCl (PH 7.5) (final volume of 230 μL) and the substrate consumed was determined by adding 20 μL 20 N NaOH, mixing and measuring absorbance at 500 nm after 5 min.
The effect of liganding tyrosine sites on the biochemical function of PTGR2 was investigated. PTGR2 has a role in metabolism and there is an ability to measure its biochemical activity using an established 15-keto-PGE2 substrate assay^[17-18]. In brief, recombinant PTGR2 expressing HEK293T cells were treated with DMSO, HHS-0701, or HHS-0101 (negative control) for 2 hours at 37° C. Cells were lysed and the soluble fractions incubated in an assay buffer containing 15-keto-PGE2 (20 μM) for 30 minutes at 37° C. After quenching reactions in NaOH, the amount of substrate remaining was quantified by absorbance of a red chromophore that forms in an alkaline solution of 15-keto-PGE2^[17-18]. […]

P22626 = assay: SILAC LC-MS ABPP; type: cell-based, human; conditions: 25 μM 2 h, live DM93 cells
Method: Cells were grown to 90-95% confluence before being washed once with warm, sterile DPBS (1×, 5 mL), followed by addition of 10 mL of serum-free media (supplemented with 1% L-glutamine) containing either DMSO or SuTEx fragment (in DMSO) was added. Light cells were treated with DMSO vehicle while the heavy cells were treated with DMSO or SuTEx fragment (in DMSO) and incubated for 2 hrs. After 2 hrs, the cells were treated with SuTEx alkyne probe (HHS475, 10 μL of 1000× DMSO stock) and incubated for an additional 2 hrs. The media was aspirated and cells washed with cold PBS (5 mL) and harvested. Cells were spun at 500×g for 5 min at 4° C. followed by removal of supernatant. Pellets were resuspended in 1 mL of cold DPBS and spun at 1,400×g for 3 min at 4° C. followed by removal of supernatant. The cells were lysed in PBS by sonication and fractionated (100,000×g, 45 min, 4° C.).The light and heavy soluble fractions were diluted to 2.3 mg/mL in PBS and 432 μL were used for analysis (1 mg total protein). The probe-modified proteomes were conjugated to desthiobiotin-PEG3-azide (10 μl of 10 mM stock in DMSO; 200 μM final concentration) using TCEP (10 μl of fresh 50 mM stock in water, 1 mM final concentration), TBTA ligand (33 μl of a 1.7 mM 4:1 t-butanol/DMSO stock, 100 μM final concentration) and CuSO4 (10 μl of 50 mM stock, 1 mM final concentration). Samples were vortexed to mix and incubated for 1 hr at room temperature. The heavy and light proteomes were mixed 1:1 and the subsequent steps, including LC-MS/MS data analysis, were performed as previously described^[8a].
Coupling cell-based screens with chemical proteomics can facilitate the identification of target protein and binding sites that engage and are irreversibly modified by covalent ligands^[12]. In these assays, covalent ligands block SuTEx activity-based probe (ABP) labeling at protein sites, and the competition of probe labeling can be used to quantify potency and selectivity across the proteome^[10a]. To facilitate quantitative chemical proteomics, DM93 melanoma cells were cultured using stable isotopic labeling by amino acids in cell culture (SILAC)^[13]. Cells cultured in “light” media were treated with dimethyl sulfoxide (DMSO) vehicle while cells cultured in “heavy” media were treated with SuTEx ligand (25 μM, 2 hours, 37° C.). Next, cells were treated with HHS-475 probe (100 μM, 2 hours, 37° C.) followed by lysis and processing of proteomes for analysis. Probe-modified proteins from the soluble fraction were conjugated to a desthiobiotin-azide tag by copper-catalyzed azide-alkyne cycloaddition (CuAAC)^[14] followed by mixing of the light and heavy proteomes. The combined proteomes were digested with trypsin protease to produce probe-modified peptides, followed by enrichment and purification by avidin affinity chromatography. Probe-modified peptides were resolved, identified, and quantified by high-resolution liquid chromatography-tandem mass spectrometry (LC-MS/MS). Resultant data were analyzed as previously described^[8a, 10a]. Table 2, below, lists sites of modification targeted by sulfonyl-triazole compounds HHS-0101, HHS-0201, HHS-0301, HHS-0401, and HHS-0701. The format of the table is as follows: protein Uniprot accession number (see uniprot.org); tyrosine site (amino acid position) modified; treatment (sulfonyl-triazole compound identification number, followed by Y (where if multiple compounds modify the same site, the compounds are separated by vertical lines).

P24534 = biological target: T7, P24534 (Homo sapiens, UniProt P24534); assay: SILAC LC-MS ABPP; type: cell-based; conditions: 25 μM 2 h, live DM93 cells
T7 construct: endogenous in cells; host or cells: DM93 (SILAC)
Procedure, shortened: as §1

Q09028 = biological target: T8, Q09028 (Homo sapiens, UniProt Q09028); assay: SILAC LC-MS ABPP; type: cell-based; conditions: 25 μM 2 h, live DM93 cells
T8 construct: performing SuTEx compound screening directly in cells; endogenous in cells; host or cells: DM93 cells (SILAC)
Procedure, shortened: as §1

T6 sequence (Q8N8N7 whole entry): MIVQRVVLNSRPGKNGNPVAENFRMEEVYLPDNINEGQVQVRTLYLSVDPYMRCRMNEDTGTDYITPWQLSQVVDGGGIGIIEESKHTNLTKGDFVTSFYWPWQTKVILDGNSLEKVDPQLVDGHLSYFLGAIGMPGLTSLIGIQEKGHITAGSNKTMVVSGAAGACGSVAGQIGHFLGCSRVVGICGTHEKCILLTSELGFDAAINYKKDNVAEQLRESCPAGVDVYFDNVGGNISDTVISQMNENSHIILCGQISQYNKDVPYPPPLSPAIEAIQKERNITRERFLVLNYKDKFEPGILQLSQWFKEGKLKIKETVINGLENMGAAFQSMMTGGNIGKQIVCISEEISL
T4 sequence (O43172 whole entry): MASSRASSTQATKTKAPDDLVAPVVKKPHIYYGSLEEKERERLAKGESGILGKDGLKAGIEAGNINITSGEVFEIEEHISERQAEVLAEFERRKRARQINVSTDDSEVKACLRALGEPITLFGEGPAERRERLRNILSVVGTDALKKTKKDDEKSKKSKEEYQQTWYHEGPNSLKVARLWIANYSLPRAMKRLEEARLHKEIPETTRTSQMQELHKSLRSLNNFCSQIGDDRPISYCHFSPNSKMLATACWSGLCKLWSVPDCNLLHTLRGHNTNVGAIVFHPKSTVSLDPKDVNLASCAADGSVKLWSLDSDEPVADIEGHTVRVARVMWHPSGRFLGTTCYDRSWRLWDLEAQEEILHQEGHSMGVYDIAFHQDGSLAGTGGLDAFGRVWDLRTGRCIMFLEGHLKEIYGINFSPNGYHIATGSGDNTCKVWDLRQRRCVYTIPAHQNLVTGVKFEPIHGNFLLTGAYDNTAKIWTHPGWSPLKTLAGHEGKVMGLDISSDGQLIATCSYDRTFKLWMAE
T7 sequence (P24534 whole entry): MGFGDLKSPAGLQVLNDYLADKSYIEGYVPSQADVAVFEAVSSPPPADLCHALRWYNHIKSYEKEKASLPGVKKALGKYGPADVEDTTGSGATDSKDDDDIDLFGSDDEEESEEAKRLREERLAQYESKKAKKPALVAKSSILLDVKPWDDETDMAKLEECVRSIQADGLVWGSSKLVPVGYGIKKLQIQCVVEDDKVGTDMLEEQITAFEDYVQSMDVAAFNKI
T5 sequence (Q9BUT1 whole entry): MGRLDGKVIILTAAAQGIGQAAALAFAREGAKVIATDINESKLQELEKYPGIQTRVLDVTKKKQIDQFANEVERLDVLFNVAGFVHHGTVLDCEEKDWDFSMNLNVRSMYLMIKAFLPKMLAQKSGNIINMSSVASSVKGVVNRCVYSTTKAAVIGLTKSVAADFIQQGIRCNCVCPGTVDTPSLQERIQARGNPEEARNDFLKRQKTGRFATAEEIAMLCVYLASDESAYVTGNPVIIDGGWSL
T2 sequence (P63241 whole entry): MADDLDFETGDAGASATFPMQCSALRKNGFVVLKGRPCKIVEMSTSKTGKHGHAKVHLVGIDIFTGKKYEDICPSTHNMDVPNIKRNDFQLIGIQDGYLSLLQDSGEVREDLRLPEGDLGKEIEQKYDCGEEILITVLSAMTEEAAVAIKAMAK
T1 sequence (Q13033 whole entry): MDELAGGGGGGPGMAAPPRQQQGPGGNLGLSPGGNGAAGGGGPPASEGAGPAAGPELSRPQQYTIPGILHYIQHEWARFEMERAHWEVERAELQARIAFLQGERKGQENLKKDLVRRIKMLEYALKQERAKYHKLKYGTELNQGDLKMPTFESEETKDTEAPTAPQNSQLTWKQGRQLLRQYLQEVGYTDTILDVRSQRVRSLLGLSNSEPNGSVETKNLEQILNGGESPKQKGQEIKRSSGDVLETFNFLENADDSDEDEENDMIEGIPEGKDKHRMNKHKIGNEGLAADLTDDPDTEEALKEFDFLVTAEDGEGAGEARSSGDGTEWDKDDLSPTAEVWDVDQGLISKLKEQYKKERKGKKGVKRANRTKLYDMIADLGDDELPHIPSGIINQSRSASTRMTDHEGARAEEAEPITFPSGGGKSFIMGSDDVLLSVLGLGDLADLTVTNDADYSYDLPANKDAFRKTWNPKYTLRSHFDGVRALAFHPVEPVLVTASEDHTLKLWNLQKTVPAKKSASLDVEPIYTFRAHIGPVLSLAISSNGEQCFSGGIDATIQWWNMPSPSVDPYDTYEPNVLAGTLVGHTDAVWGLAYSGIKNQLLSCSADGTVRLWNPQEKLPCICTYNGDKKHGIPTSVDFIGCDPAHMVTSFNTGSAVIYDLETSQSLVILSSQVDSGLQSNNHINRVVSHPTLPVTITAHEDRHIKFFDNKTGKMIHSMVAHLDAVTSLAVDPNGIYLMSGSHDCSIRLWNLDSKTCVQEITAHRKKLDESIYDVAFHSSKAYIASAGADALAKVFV
T8 sequence (Q09028 whole entry): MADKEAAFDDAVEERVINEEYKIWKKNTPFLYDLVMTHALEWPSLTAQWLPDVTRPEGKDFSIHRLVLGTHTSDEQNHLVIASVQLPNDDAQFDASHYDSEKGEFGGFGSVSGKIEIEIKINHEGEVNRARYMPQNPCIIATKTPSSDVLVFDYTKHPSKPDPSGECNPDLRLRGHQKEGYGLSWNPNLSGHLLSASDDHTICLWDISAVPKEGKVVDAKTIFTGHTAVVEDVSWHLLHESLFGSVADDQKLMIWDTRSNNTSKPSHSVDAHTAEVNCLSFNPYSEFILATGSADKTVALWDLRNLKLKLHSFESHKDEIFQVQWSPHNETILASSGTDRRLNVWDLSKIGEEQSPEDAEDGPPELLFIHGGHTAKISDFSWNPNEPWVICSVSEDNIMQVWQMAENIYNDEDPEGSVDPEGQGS
T3 sequence (Q9HCH5 whole entry): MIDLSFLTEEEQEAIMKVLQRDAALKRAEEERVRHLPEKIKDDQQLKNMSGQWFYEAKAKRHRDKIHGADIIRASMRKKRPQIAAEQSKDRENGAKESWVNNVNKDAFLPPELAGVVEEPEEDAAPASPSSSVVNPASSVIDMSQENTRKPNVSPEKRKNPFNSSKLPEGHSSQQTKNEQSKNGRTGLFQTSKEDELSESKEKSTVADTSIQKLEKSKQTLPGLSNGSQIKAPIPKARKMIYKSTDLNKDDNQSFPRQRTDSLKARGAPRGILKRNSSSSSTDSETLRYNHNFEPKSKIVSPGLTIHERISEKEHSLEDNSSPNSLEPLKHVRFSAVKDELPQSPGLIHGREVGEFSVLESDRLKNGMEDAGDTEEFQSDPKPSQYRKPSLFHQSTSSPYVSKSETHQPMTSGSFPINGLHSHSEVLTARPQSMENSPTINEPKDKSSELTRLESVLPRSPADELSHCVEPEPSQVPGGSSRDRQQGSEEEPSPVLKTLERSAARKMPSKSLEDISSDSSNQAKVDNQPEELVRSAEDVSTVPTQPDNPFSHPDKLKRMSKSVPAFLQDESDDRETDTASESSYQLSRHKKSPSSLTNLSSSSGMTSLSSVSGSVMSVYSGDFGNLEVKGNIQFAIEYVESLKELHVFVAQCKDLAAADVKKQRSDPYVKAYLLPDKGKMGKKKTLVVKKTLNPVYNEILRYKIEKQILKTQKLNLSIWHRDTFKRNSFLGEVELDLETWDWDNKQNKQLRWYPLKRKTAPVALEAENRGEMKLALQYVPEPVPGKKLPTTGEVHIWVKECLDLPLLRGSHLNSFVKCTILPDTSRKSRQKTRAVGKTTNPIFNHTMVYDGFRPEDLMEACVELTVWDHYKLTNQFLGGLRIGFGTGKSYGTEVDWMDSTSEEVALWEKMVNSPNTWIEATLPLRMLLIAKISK

O=C(NC1CC1)c1ccc(S(=O)(=O)n2cncn2)cc1 [HHS-0101, 4-((1H-1,2,4-triazol-1-yl)sulfonyl)-N-cyclopropylbenzamide]
liganded tyrosine site 137 (Q13033): HHS0101.Y|HHS0401.Y (tyrosine sites that showed >80% reductions (SR >5) in probe labeling in cells treated with compounds (liganded sites)) | liganded tyrosine site 127 (P63241): HHS0101.Y|HHS0201.Y|HHS0701.Y (tyrosine sites that showed >80% reductions (SR >5) in probe labeling in cells treated with compounds (liganded sites)) | liganded tyrosine site 289 (Q9HCH5): HHS0101.Y|HHS0201.Y|HHS0301.Y|HHS0401.Y|HHS0701.Y (tyrosine sites that showed >80% reductions (SR >5) in probe labeling in cells treated with compounds (liganded sites)) | liganded tyrosine site 31 (O43172): HHS0101.Y|HHS0301.Y (tyrosine sites that showed >80% reductions (SR >5) in probe labeling in cells treated with compounds (liganded sites)) | liganded tyrosine site 32 (O43172): HHS0101.Y|HHS0301.Y (tyrosine sites that showed >80% reductions (SR >5) in probe labeling in cells treated with compounds (liganded sites)) | liganded tyrosine site 49 (Q9BUT1): HHS0101.Y (tyrosine sites that showed >80% reductions (SR >5) in probe labeling in cells treated with compounds (liganded sites)) | inhibition of PTGR2 biochemical activity (PTGR2): No inhibitory activity | liganded tyrosine site 262 (P22626): HHS0101.Y (tyrosine sites that showed >80% reductions (SR >5) in probe labeling in cells treated with compounds (liganded sites))

O=C(NCC1CC1)c1ccc(S(=O)(=O)n2cncn2)cc1 [HHS-0201, 4-((1H-1,2,4-triazol-1-yl)sulfonyl)-N-(cyclopropylmethyl)benzamide]
liganded tyrosine site 18 (P24534): HHS0201.Y|HHS0401.Y|HHS0701.Y (tyrosine sites that showed >80% reductions (SR >5) in probe labeling in cells treated with compounds (liganded sites)) | liganded tyrosine site 244 (P22626): HHS0201.Y (tyrosine sites that showed >80% reductions (SR >5) in probe labeling in cells treated with compounds (liganded sites)) | liganded tyrosine site 247 (P22626): HHS0201.Y (tyrosine sites that showed >80% reductions (SR >5) in probe labeling in cells treated with compounds (liganded sites)) | liganded tyrosine site 283 (P22626): HHS0201.Y (tyrosine sites that showed >80% reductions (SR >5) in probe labeling in cells treated with compounds (liganded sites))

O=C(NC1CCCCC1)c1ccc(S(=O)(=O)n2cncn2)cc1 [HHS-0301, 4-((1H-1,2,4-triazol-1-yl)sulfonyl)-N-cyclohexylbenzamide]
liganded tyrosine site 154 (Q09028): HHS0301.Y|HHS0701.Y (tyrosine sites that showed >80% reductions (SR >5) in probe labeling in cells treated with compounds (liganded sites))

O=C(c1ccc(S(=O)(=O)n2cncn2)cc1)N1CCC(c2ccccc2)CC1 [HHS-0701, (4-((1H-1,2,4-triazol-1-yl)sulfonyl)phenyl)(4-phenylpiperidin-1-yl)methanone]
inhibition of PTGR2 biochemical activity (PTGR2): concentration-dependent inhibition of PTGR2 activity
